According to the OPERA property sets (Mansouri et al. 2018):
Peptide text beside a SMILES is read from it. * marks the point of attachment. NHtBu = CC(C)(C)N*

SMILES | logP
COc1cc2c(c(OC)c1OC)-c1ccc(OC)c(=O)cc1C(N)CC2 (stereo unspecified) | 1.1
O=C(Oc1ccccc1)Oc1ccccc1 | 3.28
O=S(=O)(Nc1ccccc1)C(F)(F)F | 3.05
c1ccc(-c2cccnc2)nc1 | 1.46
OCCNCCO | -1.43
CCCS(=O)(=O)CCC | 0.39
Cn1cccc1C=NNC(=O)Nc1ccccc1 | 2.71
C=CCC(NC(C)=O)C(N)=O (stereo unspecified) | -0.86
NNC(=O)c1ccc([N+](=O)[O-])cc1 | 0.35
CCNC(=O)c1[nH]nc(C)c1[N+](=O)[O-] | 0.13
O=C(Nc1ccccc1)Nc1ccc(Cl)c(Cl)c1 | 4.7
O=C(O)c1ccccc1Nc1ccccc1 | 4.36
CN(C)C(=O)OCc1cccc(N(C)C)c1 | 2.28
FC(F)(F)c1ccc(C(F)(F)F)cc1 | 3.83
Nc1ccc2nc3ccccc3cc2c1 | 2.62
c1ccc2c(c1)OCO2 | 2.08
CN(C)CC/C=C1\c2ccccc2Sc2ccc(Cl)cc21 | 5.18
O=C(O)c1ccc(CO)cc1 | 0.93
NNC(=O)c1ccccc1O | 0.6
Nc1cccc(S(N)(=O)=O)c1 | -0.38
COC(=O)C1C(C=C(Cl)Cl)C1(C)C (stereo unspecified) | 3.63
Cc1cccc(S(N)(=O)=O)c1 | 0.85
OCc1ccc2c(c1)OCO2 | 1.05
Cc1cc2ccccc2cn1 | 2.68

SMILES | logP
NC(=O)c1ccc(F)cc1 | 0.91
CCCCOC(C)=O | 1.78
COc1cccc(C(=O)N(C)C)c1 | 1
CCOP(=O)(NC(C)C)Oc1ccc(SC)c(C)c1 (stereo unspecified) | 3.23
CC(=O)N[C@@H](Cc1c[nH]c2ccccc12)C(=O)N[C@H](C(N)=O)C(C)C (Ac-Trp-Val-NH2) | 0.73
CC(C)(C)C(=O)C(C)(C)C | 3
C=CC(=O)OCC | 1.32
NS(=O)(=O)c1cc2c(cc1C(F)(F)F)NCNS2(=O)=O | 0.36
O=Nc1ccc2ccccc2c1O | 2.46
NS(=O)(=O)c1ccc2ncccc2c1 | 0.56
Cc1ccc(C)n1N(C)c1ccc(N2CCOCC2)nn1 | 2.21
COCC(=O)N(c1c(C)cccc1C)C(C)C(=O)OC (stereo unspecified) | 1.65
COC(=O)CCC(=O)OCC(=O)C1(O)CCC2C3CCC4=CC(=O)CCC4(C)C3C(O)CC21C (stereo unspecified) | 2.6
CC(=O)NC(C)C(=O)NC(Cc1ccccc1)C(=O)NC(C)C(=O)NC(C)(C)C (stereo not drawn) (Ac-Ala-Phe-Ala-NHtBu; configuration not given here) | 1.01
CS(=O)(=O)c1cccc(-c2nc(N)nc(N)n2)c1 | 0.29
CC(=O)Nc1cc(C(=O)NN)ccn1 | -1.25
COP(=S)(OC)Oc1ccc(Sc2ccc(OP(=S)(OC)OC)cc2)cc1 | 5.96
CNC(=O)Oc1cc(C)cc(C(C)C)c1 | 3.1
CC(C)(C)[N+](=O)[O-] | 1.17
COP(=S)(OC)SCn1nnc2ccccc2c1=O | 2.75
CC(=O)NC(CO)C(O)c1ccc([N+](=O)[O-])cc1 (stereo unspecified) | -0.03
NNC(=O)c1ccnc([N+](=O)[O-])c1 | -0.76
CCCCCCOc1cccc(NC(=O)OCCN2CCCCC2)c1 | 5.51
Cc1nc([N+](=O)[O-])cn1CCO | -0.59

SMILES | logP
CCN(CC)CCOC(=O)C=Cc1cc(OC)c(OC)c(OC)c1 | 2.84
CC(=O)C(=Cc1ccccc1)C(C)=O | 1.59
O=[N+]([O-])c1ccc(OCCN2CCOCC2)cc1 | 1.54
CCC(CNC)c1ccccc1 (stereo unspecified) | 2.82
CC(=O)Nc1cccc(N(C)C)c1 | 1.29
CCOC(=O)OCC | 1.21
COP(=O)(OC)Oc1ccc([N+](=O)[O-])c(C(C)C)c1 | 2.57
CN(C)Cc1ccccc1 | 1.98
C[C@]12CCC(=O)C=C1CC[C@@H]1[C@@H]2CC[C@]2(C)C(=O)CC[C@@H]12 | 2.75
CN(C)C(=O)Nc1ccc(C(C)(C)C)cc1 | 3.1
CSc1ccc(SC)nn1 | 1.85
NC(=O)C1CCN(CCCN2c3ccccc3Sc3ccc(Cl)cc32)CC1 | 4.44
CCOC(=O)CN(C(=O)CCl)c1c(CC)cccc1CC | 3.6
Nc1ccccn1 | 0.48
C=C | 1.13
CCCCOC(N)=O | 0.85
Cc1cccc(C)c1O | 2.36
CC(C)(C)C1CCN(N=O)CC1 | 2.54
COCCO | -0.77
c1ccc2cnccc2c1 | 2.08
Nc1c([N+](=O)[O-])cccc1[N+](=O)[O-] | 1.79
O=C(O)c1ccccc1[N+](=O)[O-] | 1.46
CCC(C)NP(=O)(OC)Oc1cc(Cl)c(Cl)cc1Cl (stereo unspecified) | 3.99
NNC(=O)c1ccc(Cl)cc1 | 1.18

SMILES | logP
Oc1cc(Cl)cc(Cl)c1 | 3.62
CCc1ccccc1OC(=O)NC | 1.93
CC(=O)C=Cc1ccccc1 | 2.07
NC(=O)N/N=C/c1ccc([N+](=O)[O-])o1 | 0.23
Clc1c(Cl)c(Cl)c2ccccc2c1Cl | 5.75
COC(=O)c1c[nH]c(C)c1 | 1.96
CNCC(CC(C)C)c1ccccc1 (stereo unspecified) | 3.76
O=C1NC(=O)c2ccccc21 | 1.15
O=C(O)c1cccc(Cl)c1 | 2.68
CCC(=O)C1(c2cccc(OC(=O)c3ccccc3)c2)CCN(C)CC1 | 3.03
CCNCCc1cccnc1 | 0.54
O=Cc1ccc[nH]1 | 0.64
CN(C)c1cccc2ccccc12 | 3.46
CCC=O | 0.59
NC(=O)OCc1ccccc1 | 1.2
OCCCCCl | 0.85
COC(=O)c1cc(Cl)ccc1N | 3.3
CNC(=O)Oc1cccc(Br)c1 | 2.25
O=C(O)COc1cccc(F)c1 | 1.48
Oc1cc(Cl)ccc1Cl | 3.06
COc1ccccc1C(=O)O | 1.59
Cc1cccc2sc3nncn3c12 | 1.7
c1ccc2c(c1)CCO2 | 2.14
O=C(O)COc1ccc(Cl)c(I)c1 | 3.1

SMILES | logP
Oc1cc(Cl)c(Cl)cc1Cl | 3.72
CNC(=O)c1ccccc1 | 0.86
COc1ccc(C=CNC=O)cc1 | 1.94
CCCOC(=O)c1cc(O)c(O)c(O)c1 | 1.8
CCCCCCCBr | 4.36
N#CCc1ccc(Cl)cc1 | 2.47
CCCCSCS(=O)CC(CO)NC(=O)C=Cc1c(C)[nH]c(=O)[nH]c1=O (stereo unspecified) | 0.14
NCCCCCc1cccnc1 | 1.41
O=[N+]([O-])c1ccco1 | 0.66
Nc1ccccc1SSc1ccccc1N | 3.05
C=C(F)F | 1.24
O=C1CCC(=O)N1c1ccccc1I | 0.8
COc1cccc(COC(=O)N(C)C)c1 | 2.09
O=C1CC(c2ccc(C(F)(F)F)cc2)Cc2c1c(=O)c1cc(Cl)ccc1n2O (stereo unspecified) | 3.46
CN(C)C(=O)Nc1cccc(CCc2ccccc2)c1 | 3.21
CCCCCOCc1ccccc1NC(=O)OCCN1CCCCC1 | 4.42
CCOC(=O)C(=O)c1cccs1 | 1.77
Oc1ccc(O)cc1 | 0.59
O=c1c2ccccc2sc2ccccc12 | 3.99
CC(C)(C)C(=O)NN | -0.35
O=Cc1ccoc1 | 0.51
O=[N+]([O-])c1ccc(C=Cc2ncccn2)o1 | 1.34
CCOC(=O)C(=Cc1c(Cl)cccc1Cl)C(C)=O | 2.86
O=C(C=CC(=O)c1ccccc1)c1ccccc1 | 3.16

SMILES | logP
COc1ccc(CC(C)N)cc1 (stereo unspecified) | 1.77
C[C@]12CC[C@H]3[C@@H](CCC4=CC(=O)CC[C@@H]43)[C@@H]1CC[C@@H]2O | 2.62
O=C(O)COc1cccc(I)c1 | 2.44
Cc1cc(=O)[nH]o1 | 0.46
COc1cc2c(c3c1c(=O)c1ccccc1n3C)C=CC(C)(C)O2 | 3.67
C=C(C=O)CC | 1.24
O=C(C=Cc1ccccc1)Nc1ccccc1 | 3.61
O=C(O)Cc1ccccc1Nc1c(F)cccc1Cl | 3.8
Oc1c(Cl)cc(Cl)c(Cl)c1Cc1c(O)c(Cl)cc(Cl)c1Cl | 7.54
CC1OC(OC2C(O)CC(OC3C(O)CC(OC4CCC5(C)C(CCC6C5CCC5(C)C(C7COC(=O)C7)CCC65O)C4)OC3C)OC2C)CC(O)C1O (stereo unspecified) | 2.9
CN(C)c1ccc2c(c1)C(=O)N(S(C)(=O)=O)C2=O | 1.65
CN1CCCCC1 | 1.3
CCC(=O)C1(c2cccc(OC(=O)OCC(C)C)c2)CCN(C)CC1 | 2.38
Cc1ccc2cccc(C)c2c1 | 4.44
OCCCF | -0.28
CCCOc1cncc(C)n1 | 2.29
c1ccc2nnccc2c1 | 0.93
O=C(O)c1cc(I)cc(I)c1O | 4.56
C=CCCC=C | 2.87
O=C(O)c1cccc(O)c1 | 1.5
C1OCOCO1 | -0.43
CSc1ccc2c(c1)N(CCC1CCCCN1C)c1ccccc1S2 (stereo unspecified) | 5.9
CN(C)C(=O)Nc1cccc([N+](=O)[O-])c1 | 1.46
CC(C)C(Br)C(=O)NC(N)=O (stereo unspecified) | 1.14

SMILES | logP
CC[C@H](C)[C@H](NC(=O)[C@@H](NC(=O)[C@H](C)NC(C)=O)C(C)C)C(N)=O | -0.2
CCOC(=O)C(=Cc1ccccc1)C(C)=O | 2.21
C=CCCCCCCC | 5.15
CN(C)CCN(C)S(=O)(=O)c1ccc(C(C)(C)[N+](=O)[O-])c([N+](=O)[O-])c1 | 1.42
C=CCC1(CC=C)C(=O)NC(=O)N(C)C1=O | 1.55
CN(C)C(=O)C12CC3CC(CC(C3)C1)C2 | 2.55
CCS(=O)(=O)CCn1c([N+](=O)[O-])cnc1C | -0.35
Nc1cc(C(F)(F)F)ccc1Cl | 3.06
O=C1C=CC(=O)C(Cl)=C1 | 0.84
CNS(=O)(=O)c1ccccc1 | 0.92
CCOCC1CO1 (stereo unspecified) | 0.36
O=C(Nc1ccccc1)NC1CCCCC1 | 2.77
ON=Cc1ccc(F)cc1 | 2.03
CC1C(c2ccccc2)OCCN1N=O (stereo unspecified) | 2.09
S=C1CCCCCCN1 | 1
CN(C)C(=O)c1ccccc1 | 0.62
CCOCCOC(=O)C(C#N)=C(CC)Nc1ccc(N)cc1 | 2.27
CNC(=O)Oc1cccc(Cl)c1 | 2.03
CSc1cccc(NC(N)=O)c1 | 1.57
CCCNC(=O)NO | -0.22
Nc1cc([N+](=O)[O-])cc([N+](=O)[O-])c1 | 1.89
c1ccc2c(c1)Nc1ccccc1S2 | 4.15
